We go through four compounds from article PMC8228600, “Design, Synthesis, In Vitro and In Vivo Evaluation of Heterobivalent SiFAlin-Modified Peptidic Radioligands Targeting Both Integrin αvβ3 and the MC1 Receptor—Suitable for the Specific Visualization of Melanomas?” (Pharmaceuticals, 2021).

The structures appear in SMILES notation.

Data set [1] is described as follows: logD(7.4) determination (n-octanol / phosphate buffer distribution). Type of data set: physicochemical. The following applies: n-octanol / 0.05 M phosphate buffer pH 7.4; mean ± SD. The method, then: Since high lipophilicity of peptidic radiotracers can lead to a high plasma protein binding, resulting in unspecific organ and high liver uptakes, thus negatively impact tumor visualization, the lipophilicity of the HBPLs was determined to get an approximate estimation of the in vivo biodistribution behavior of the radioligands. Therefore, the logD(7.4) values of the SiFAlin-modified HBPLs [^18F]1–[^18F]6 were determined via their distribution coefficient between n-octanol and phosphate buffer at pH 7.4.
The radiotracer solutions were first diluted with 0.9% NaCl solution to give a final EtOH concentration of <10%. A total of 5 MBq of the respective radiotracer in solution was added to 1.6 mL of a mixture of n-octanol and 0.05 M phosphate buffer (pH = 7.4) (v/v, 1/1), and the solution was vigorously shaken for 5 min. Subsequently, the phases were separated by centrifugation at 13.4 rpm for 2 min, and 100 μL of organic and aqueous phases were collected. The activity of each sample was measured using a gamma counter. The lipophilicity of each compound was determined in triplicate in three independent experiments.

Data set [2] in a line: Stability of radiotracers in human serum (radio-HPLC). Type of data set: in vitro ADME. The following applies: 37 °C, 120 min, mean ± SD, read-out: Stability: intact radiotracer after 120 min of incubation in human serum. The method, then: In addition to the investigation of the radiotracers’ lipophilicity, their stability in human serum was evaluated in order to determine possible stability issues of the newly developed agents. For this purpose, the respective ^18F-labeled HBPLs were incubated in human serum at 37 °C for 120 min. The results of these experiments are summarized in Table 1, and the corresponding radio-HPLC chromatograms for [^18F]2 as representative examples for all compounds studied are depicted in Figure 3A (see Supplementary Materials, Figure S91 for the results obtained for the other radioligands). In Figure 3B, the portions of intact radiotracer over the course of the stability experiments are depicted.
The radiotracer solutions were first diluted with 0.9% NaCl solution to give a final EtOH concentration of <10%. Then, 6 × 25 μL radiotracer solution was added to 6 × 100 μL human serum and incubated at 37°C for 120 min. At defined time points (5, 15, 30, 60, 90 and 120 min), 125 μL EtOH was added to one of the mixtures and the precipitation of serum proteins was supported by ice-cooling for 2 min. After centrifugation at 13.4 rpm for 2 min, the supernatant was analyzed by analytical radio-HPLC (0–100% MeCN + 0.1% TFA in 5 min). The experiment was performed for each compound trice by three independent experiments.

Usually logD stands for lipophilicity at a set pH, counting ionised and neutral species. A high value points to higher lipophilicity. In the case of `CCCC[C@H](NC(=O)CNC(=O)CNC(=O)CCOCCOCCC(=O)NCCCN(CCCNC(=O)CCOCCOCCC(=O)NCCCC[C@@H]1NC(=O)[C@@H](Cc2ccccc2)NC(=O)[C@H](CC(=O)O)NC(=O)CNC(=O)[C@H](CCCNC(=N)N)NC1=O)CC(=O)N[C@@H](CCCCNC(=O)CCC[N+](C)(C)Cc1ccc([Si](F)(C(C)(C)C)C(C)(C)C)cc1)C(N)=O)C(=O)N[C@H]1CC(=O)NCCCC[C@@H](C(N)=O)NC(=O)[C@H](Cc2c[nH]c3ccccc23)NC(=O)[C@H](CCCNC(=N)N)NC(=O)[C@@H](Cc2ccccc2)NC(=O)[C@H](Cc2c[nH]cn2)NC1=O` [[^18F]1], the logD in data set [1] is -1.08 ± 0.07. The remaining at 2 h in data set [2] amounted to 87 ± 2.3%.

With `CCCC[C@H](NC(=O)CNC(=O)CNC(=O)CCOCCOCCOCCOCCOCCOCCC(=O)NCCCN(CCCNC(=O)CCOCCOCCOCCOCCOCCOCCC(=O)NCCCC[C@@H]1NC(=O)[C@@H](Cc2ccccc2)NC(=O)[C@H](CC(=O)O)NC(=O)CNC(=O)[C@H](CCCNC(=N)N)NC1=O)CC(=O)N[C@@H](CCCCNC(=O)CCC[N+](C)(C)Cc1ccc([Si](F)(C(C)(C)C)C(C)(C)C)cc1)C(N)=O)C(=O)N[C@H]1CC(=O)NCCCC[C@@H](C(N)=O)NC(=O)[C@H](Cc2c[nH]c3ccccc23)NC(=O)[C@H](CCCNC(=N)N)NC(=O)[C@@H](Cc2ccccc2)NC(=O)[C@H](Cc2c[nH]cn2)NC1=O` [[^18F]3], the logD in data set [1] is -1.15 ± 0.01. Further, the remaining at 2 h in data set [2] was found to be 81.4 ± 2.9%.

In data set [1], `CCCC[C@H](NC(=O)CNC(=O)CNC(=O)COCC(=O)NCCCN(CCCNC(=O)COCC(=O)NCCCC[C@@H]1NC(=O)[C@@H](Cc2ccccc2)NC(=O)[C@H](CC(=O)O)NC(=O)CNC(=O)[C@H](CCCNC(=N)N)NC1=O)CC(=O)N[C@@H](CCCCNC(=O)CCC[N+](C)(C)Cc1ccc([Si](F)(C(C)(C)C)C(C)(C)C)cc1)C(N)=O)C(=O)N[C@H]1CC(=O)NCCCC[C@@H](C(N)=O)NC(=O)[C@H](Cc2c[nH]c3ccccc23)NC(=O)[C@H](CCCNC(=N)N)NC(=O)[C@@H](Cc2ccccc2)NC(=O)[C@H](Cc2c[nH]cn2)NC1=O` [[^18F]5] came in with a logD of -1.21 ± 0.01. Moreover, the remaining at 2 h in data set [2] was determined as 83.2 ± 2.4%.

As to `CCCC[C@H](NC(=O)CNC(=O)CNC(=O)[C@H](CCC(=O)O)NC(=O)CNC(=O)[C@H](CCC(=O)O)NC(=O)CNC(=O)[C@H](CCC(=O)O)NC(=O)C(=O)NCCCN(CCCNC(=O)C(=O)N[C@@H](CCC(=O)O)C(=O)NCC(=O)N[C@@H](CCC(=O)O)C(=O)NCC(=O)N[C@@H](CCC(=O)O)C(=O)NCCCC[C@@H]1NC(=O)[C@@H](Cc2ccccc2)NC(=O)[C@H](CC(=O)O)NC(=O)CNC(=O)[C@H](CCCNC(=N)N)NC1=O)CC(=O)N[C@@H](CCCCNC(=O)CCC[N+](C)(C)Cc1ccc([Si](F)(C(C)(C)C)C(C)(C)C)cc1)C(N)=O)C(=O)N[C@H]1CC(=O)NCCCC[C@@H](C(N)=O)NC(=O)[C@H](Cc2c[nH]c3ccccc23)NC(=O)[C@H](CCCNC(=N)N)NC(=O)[C@@H](Cc2ccccc2)NC(=O)[C@H](Cc2c[nH]cn2)NC1=O` [[^18F]6], in data set [1], the logD is -1.52 ± 0.01. Besides, the remaining at 2 h in data set [2] came out at 82.7 ± 1.8%.
